Entries after “also recorded” stand apart in the source; their conditions may differ.
Columns and labels:
eGFP-4T1 cells = test: Mitophagy induction / mitochondrial EV fluorescent labelling (CCCP perturbation); type: cell-based, murine
Source text: To further verify that PINK1-associated EVs contained mitochondrial components via a orthogonal methods, we performed a functional perturbation in vitro to induce the cellular release of mitophagy-associated EVs. We treated sub-confluent eGFP-4T1 cells with a mitochondrial depolarization protonophore carbonyl cyanide m-chlorophenyl hydrazone (CCCP) (Villa et al., 2017) and added a permanent fluorescent label for active mitochondrial membranes with MitoTracker Deep Red (MTDR) (Chazotte, 2011). After 48 h, the cells reached 70% confluency and were harvested by differential ultracentrifugation.
Two 4T1-eGFP cell cultures were plated at 10^6 cells/ml. Untreated cells were left to grow for 5 days. Treated cells were stimulated with 10 nM of carbonyl cyanide 3-chlorophenylhydrazone (CCCP) (Sigma) and left to grow for 5 days. The supernatants were collected and EVs fractions were isolated by differential ultracentrifugation. The resulting 100K EVs were probed for anti-ARIH1 (Santa Cruz) by Western blot.
Two 4T1-eGFP-Puro cell cultures were plated at 10^6 cells/ml. Untreated cells were left to grow for 48 h. Treated cells were stimulated with 10 nM and 10 μM of CCCP and left to grow for 48 h. At 48 h, 50 nM of MitoTracker Deep Red (MTDR) (Thermo Fisher) was added to the media and left to sit overnight in the cell incubator. The supernatants were collected and EVs were isolated by differential ultracentrifugation. EVs subpopulations were plated at 30 μl and scanned for peak emission fluorescent intensity fluorescence at […] (absorbance/emission) for GFP and 635/675 nm (absorbance/emission) for MTDR on a Tecan safire2 plate reader.

irradiated tumor = details: mice; cited from earlier work
[1] = tested on: Ovarian Cancer tumor cells; test: EVs released by ovarian cancer cells undergoing cisplatin treatment (Western blot, RPPA); type: cell-based
Procedure: A) Ovarian Cancer tumor cells are treated with pulses of cisplatin, a common ovarian cancer therapeutic. EVs released by the cancer cells undergoing cisplatin treatment are isolated by differential ultracentrifugation and analyzed via Western Blot, mass spectrometry, and reverse phase protein array in order to determine potential pathways and markers that are indicative of cancer resistance. […] Additionally, the subpopulations are present with typical EV related tetraspanin markers.
In an embodiment, RPPA assays previously used for tissue lysates can be adapted for use with EV subpopulations.

N#CC(C#N)=NNc1cccc(Cl)c1 [CCCP, carbonyl cyanide m-chlorophenyl hydrazone]
MitoTracker Deep Red (MTDR) in 100K EVs (eGFP-4T1 cells; MTDR fluorescence normalized to GFP by EV subpopulation): increased release of 100K EVs containing active mitochondrial molecules; also recorded: increasing levels | ARIH1 presence in the 100K EVs (eGFP-4T1 cells; compared to no treatment, Western blot): induced ARIH1 presence | release of CD81+/PINK1+ 100K EVs (eGFP-4T1 cells; increasing CCCP up to 10 μM (cytotoxic level), 48 h, Western blot): release of increased Parkin-independent mitophagy-containing 100K EVs; also recorded: increased release of CD81+/PINK1+ 100K EVs in a dose dependent manner; also recorded: increased export of PINK1 and MitoTracker

CCN(CC)CCCC(C)Nc1ccnc2cc(Cl)ccc12 (centres unmarked) [chloroquine]
response to radiation therapy (irradiated tumor): improves response

N.N.[Cl][Pt][Cl] [cisplatin]
RPPA ratio pre to post treatment, EGFR (pY1068) and Bax pathways ([1]; 2K EV population): greatly increased | RPPA ratio pre to post treatment, Akt ([1]; 10K EV population): 11 fold | RPPA pathways altered after treatment ([1]; 100K EV population): few pathways were altered | LC3-I/II (autophagy) and PD-L1 in EV subpopulations, Western blot ([1]; post-treatment EVs compared to pre-treatment): upregulating
